Earlier results as cited in patent publication US20040018228A1, “Compositions and methods for reducing scar tissue formation” (Afmedica, Inc., priority 2000, published 2004).

Columns and labels:
keloids = conditions: in vivo

SMILES | treatment of keloids (keloids) | solubility in aqueous solutions
C=CC[C@@H]1/C=C(\C)C[C@H](C)C[C@H](OC)[C@H]2O[C@@](O)(C(=O)C(=O)N3CCCC[C@H]3C(=O)O[C@H](/C(C)=C/[C@@H]3CC[C@@H](O)[C@H](OC)C3)[C@H](C)[C@@H](O)CC1=O)[C@H](C)C[C@@H]2OC [tacrolimus] | effectively treat keloids | 
CO[C@H]1C[C@@H]2CC[C@@H](C)[C@@](O)(O2)C(=O)C(=O)N2CCCC[C@H]2C(=O)O[C@H]([C@H](C)C[C@@H]2CC[C@@H](O)[C@H](OC)C2)CC(=O)[C@H](C)/C=C(\C)[C@@H](O)[C@@H](OC)C(=O)[C@H](C)C[C@H](C)/C=C/C=C/C=C/1C [sirolimus] |  | not to be readily soluble in aqueous solutions
